For experiment [1], the system named is ticks of the genus Ixodes ricinus. The experiment can be described thus: In-vivo comparison on dogs of anti-tick action following spray application. Particulars: Beagle dogs; for anti-tick activity in the course of 3 successive days (in words): single spray application. From the text: In-vivo comparison on dogs in respect of the anti-tick action of 2-propyl-pentanoic acid-bis-(2-methoxyethyl)-amide according to the present invention with DEET (in the form of PARAPIC DOG® (a tick repellent containing DEET)) following spray application.
The following formulations of active ingredient are used in the test which follows: […]
Prior art composition of the Parapic anti-tick spray: • active substance: 15% N,N-Diethyl-3-methylbenzamide (DEET); 15% • ethylbutylacetylaminopropionate (EBMP), isopropanol, methacrylic acid copolymer, carbamide, fragrance (perfume).
Inventive composition of the 2-propyl-pentanoic acid-bis-(2-methoxyethyl )-amide spray: active substance: 2-propyl-pentanoic acid-bis-(2-methoxyethyl )-amide 4.5%; Pluronic F6® 2.0%; water 10.0%, isopropanol ad 100.0%.
The aim of the test is to make a comparison, under natural conditions, of the commercially available anti-vermin product Parapic Dog® with a typical representative of a compound of formula (I), namely 2-propyl-pentanoic acid-bis-(2-methoxyethyl)-amide. According to the packaging information one should reach with Parapic Dog® an 80% anti-tick protection over a period of 48 hours. The active ingredient of Parapic Dog® is DEET, which is the chemical substance N,N-Diethyl-3-methylbenzamide. Products based on the active ingredient DEET, such as Parapic Dog® are widely used against ticks on dogs and cats, and also on humans. Actually, the majority of the currently used anti-tick products is based on DEET, and the mostly used product in dogs is said Parapic Dog®.
Test Protocol: 12 Beagle dogs are divided into groups of 4. To distinguish them, each dog is given a numbered label. Group 1 is treated with a 4.5% 2-propyl-pentanoic acid-bis-(2-methoxy-ethyl)-amide spray (3645mg a.i./m^2). Group 2 is treated with Parapic Dog®-Spray ([…] DEET/3645 mg a.i./m^2). Group 3 remains untreated and serves as a control.
All twelve dogs are taken on 3 successive days to a wooded plot infected with ticks of the genus Ixodes ricinus and are left to run around there. They are free to move around there for 2 hours. An evaluation is made directly after returning from the wood. The two-hour walks are repeated on the next 2 days without the dogs being treated again, and the evaluation is again made directly after returning from the wood. This is effected by carefully searching the fur and the skin of each animal for ticks adhered thereto. The ticks are counted and compared with the number of ticks in the control group.

The subject of experiment [2] is Amblyomma hebraeum or variegatum (nymphs). The experiment can be described thus: Arena test in vitro against Amblyomma hebraeum or variegatum (nymphs). Particulars: even up to a dilution of 3.2 μg/cm^2. The protocol:
(§1) This method is carried out in titre plates having 6 wells with a cross-section of 5 cm each, using a computer-supported video system. Each well of the titre plate is lined with a circular filter paper or another suitable carrier material. The substance of formula (I) to be tested is dissolved in methanol, acetonitrile or another suitable solvent, with ultrasound treatment and heating being employed for poorly-soluble substances. In an amount of 1 to 100 μg/cm^2, the dissolved test substance is placed in the centre of the filter paper on a quadrant or circular area of ca. 2.4 cm^2 radius. 4 of the 6 wells are filled with different test substances or with the same test substance in different dilutions (e.g. 1, 3.2, 5, 10 and 20 μg/cm^2) The 5th well is treated with DEET (N,N-diethyl-m-toluamide) as standard substance. The 6th well is filled with the pure solvent and serves as a control. […] In this way, neutral and repellent substances are determined. At the same time, the duration of activity of the test substance is determined and compared with that of the standard. […] This frequency is evaluated statistically and thus quantitatively by the Willcoxon method in a comparison with the control and with the standard. […]

Experiment [3] concerns Rhipicephalus sanguineus (nymphs). In words: Arena test in vitro against Rhipicephalus sanguineus (nymphs). Particulars: even up to a dilution of 3.2 μg/cm^2. The protocol: as §1
Experiment [4] deals with parasite to be tested, e.g. ticks. The experiment can be described thus: Arena test method for testing vermin-repellent substances. Particulars: 1 to 100 μg/cm^2 on filter paper; video evaluation versus control and DEET standard. The method, then:
Arena Test Method for Testing Vermin-repellent Substances
This method is carried out in titre plates having 6 wells with a cross-section of 5 cm each, using a computer-supported video system. Each well of the titre plate is lined with a circular filter paper or another suitable carrier material. The substance of formula (I) to be tested is dissolved in methanol, acetonitrile or another suitable solvent, with ultrasound treatment and heating being employed for poorly-soluble substances. In an amount of 1 to 100 μg/cm^2, the dissolved test substance is placed in the centre of the filter paper on a quadrant or circular area of ca. 2.4 cm^2 radius. 4 of the 6 wells are filled with different test substances or with the same test substance in different dilutions (e.g. 1, 3.2, 5, 10 and 20 μg/cm^2) The 5th well is treated with DEET (N,N-diethyl-m-toluamide) as standard substance. The 6th well is filled with the pure solvent and serves as a control. […]
At intervals of 5 seconds, the video camera takes individual pictures of all 6 wells. […] In this way, neutral and repellent substances are determined. At the same time, the duration of activity of the test substance is determined and compared with that of the standard. […] This frequency is evaluated statistically and thus quantitatively by the Willcoxon method in a comparison with the control and with the standard. […]

Experiment [5] relates to Boophilus microplus Biarra (larvae). In words: Arena test in vitro against Boophilus microplus Biarra (larvae). Particulars: even up to a dilution of 3.2 μg/cm^2. The protocol: as §1
In a further experiment the test system is vermin. Particulars: volatilizes rather rapidly; cited from earlier work.

As for `CCCC(CCC)C(=O)N(CCOC)CCOC` [Compound no. 1.31, 2-propyl-pentanoic acid-bis-(2-methoxyethyl)-amide], the “anti-tick action after 1 day” value in experiment [1] (single spray application 3645 mg a.i./m^2, 2 hour walk in tick-infested wood, versus untreated control, after 1 day) is recorded as 100%. For the same compound, the “anti-tick action after 2 days” value in experiment [1] (single spray application 3645 mg a.i./m^2, 2 hour walk in tick-infested wood, versus untreated control, after 2 days) worked out at 98%. For the same compound, in experiment [1] (single spray application 3645 mg a.i./m^2, 2 hour walk in tick-infested wood, versus untreated control, after 3 days), the “anti-tick action after 3 days” value is 79%. Also, the “anti-tick activity in the course of 3 successive days (in words)” value in experiment [1] is reported as “very good results”. Also, the “long-term action against Amblyomma nymphs” value in experiment [2] is recorded as “especially marked long-term action”. In experiment [3], the “long-term action against Rhipicephalus sanguineus nymphs” value is on record as “especially marked long-term action”. Besides, the “repellent activity in arena test” value in experiment [4] is recorded as “particularly active”. Moreover, the “long-term action against Boophilus larvae” value in experiment [5] is recorded as “especially marked long-term action”.
Turning to `CCN(CC)C(=O)c1cccc(C)c1` [DEET, N,N-diethyl-m-toluamide, reference compound], the “anti-tick activity in the course of 3 successive days (in words)” value in experiment [1] is reported as “drops abruptly after 2 days”. In addition, the “time after which reapplication is needed” value in the experiment with vermin is recorded as “ca. 2 hours”.

Source of the values: patent publication US7749526B2, “Vermin-repellant compositions and compounds” (Novartis AG, priority 2002, dated 2010).
